Results taken from PMC7957565 (Molecules, 2021).

Columns and labels:
[1] = target: butyrylcholinesterase (BuChE, from equine serum) (Equus caballus, UniProt P81908); assay: biochemical; details: eqBuChE; mean ± spread
AChE (from electric eel) = target: T1, AChE (from electric eel) (Electrophorus electricus, UniProt O42275); assay: biochemical; details: eeAChE; for inhibition at 100 µM: compound at 100 μM, read-out: AChE inhibition rate (%) in 100 μM; for IC50: mean ± spread
T1 construct: purchased Sigma-Aldrich
T1 sequence (O42275 24-633): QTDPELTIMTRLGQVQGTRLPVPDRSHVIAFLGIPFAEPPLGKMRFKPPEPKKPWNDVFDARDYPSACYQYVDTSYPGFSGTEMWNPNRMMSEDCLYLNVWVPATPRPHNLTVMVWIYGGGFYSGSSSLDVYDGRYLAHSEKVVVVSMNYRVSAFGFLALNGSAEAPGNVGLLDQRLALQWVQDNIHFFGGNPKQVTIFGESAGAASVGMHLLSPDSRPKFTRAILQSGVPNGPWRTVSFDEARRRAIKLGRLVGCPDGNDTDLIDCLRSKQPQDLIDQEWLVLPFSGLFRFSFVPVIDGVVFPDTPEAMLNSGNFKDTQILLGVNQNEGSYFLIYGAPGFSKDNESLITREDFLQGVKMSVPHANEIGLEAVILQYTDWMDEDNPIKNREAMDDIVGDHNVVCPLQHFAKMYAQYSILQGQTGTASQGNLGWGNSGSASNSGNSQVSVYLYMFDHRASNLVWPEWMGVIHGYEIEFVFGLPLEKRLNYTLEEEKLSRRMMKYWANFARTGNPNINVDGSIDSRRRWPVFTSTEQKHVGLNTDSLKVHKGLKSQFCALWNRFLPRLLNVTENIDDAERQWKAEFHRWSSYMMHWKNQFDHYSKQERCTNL

Chain of butyrylcholinesterase (BuChE, from equine serum) (P81908 whole entry): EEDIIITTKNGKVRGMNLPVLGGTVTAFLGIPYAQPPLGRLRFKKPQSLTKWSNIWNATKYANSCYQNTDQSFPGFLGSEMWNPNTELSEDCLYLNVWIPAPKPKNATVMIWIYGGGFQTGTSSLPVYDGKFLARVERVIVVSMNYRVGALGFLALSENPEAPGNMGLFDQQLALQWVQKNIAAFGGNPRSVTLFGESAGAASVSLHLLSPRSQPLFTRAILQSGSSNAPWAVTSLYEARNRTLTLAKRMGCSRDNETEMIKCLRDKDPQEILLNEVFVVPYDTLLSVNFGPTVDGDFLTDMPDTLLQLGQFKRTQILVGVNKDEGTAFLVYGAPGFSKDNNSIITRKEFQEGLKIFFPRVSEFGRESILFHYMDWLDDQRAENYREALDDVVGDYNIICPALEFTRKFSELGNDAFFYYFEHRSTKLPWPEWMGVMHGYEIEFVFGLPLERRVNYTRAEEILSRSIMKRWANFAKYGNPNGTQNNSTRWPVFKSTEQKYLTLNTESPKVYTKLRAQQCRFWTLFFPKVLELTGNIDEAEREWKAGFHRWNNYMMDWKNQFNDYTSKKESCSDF

Row | Structure (SMILES) | IC50 [1] [µM] | inhibition at 100 µM (AChE (from electric eel)) [%] | IC50 (AChE (from electric eel)) [µM]
1 | COc1ccc2[nH]c3c4c(c(C=O)cc3c2c1)OC(C)(C)C=C4 [Clau F, Claulansine F, reference compound] | 64.3 ± 7.52 | 28.2 ± 2.11 | 
2 | CC1(C)C=Cc2c(c(/C=C/C(=O)NC3CCN(Cc4ccccc4)CC3)cc3c2[nH]c2ccc(C(C)(C)C)cc23)O1 [Compound 6aa, (E)-N-(1-Benzylpiperidin-4-yl)-3-(8-(tert-butyl)-3,3-dimethyl-3,11-dihydropyrano[3,2-a]carbazol-5-yl)acrylamide] | 22.9 ± 1.14 |  | 51.9 ± 2.24
3 | CC1(C)C=Cc2c(c(/C=C/C(=O)NC3CCN(Cc4ccccc4F)CC3)cc3c2[nH]c2ccc(C(C)(C)C)cc23)O1 [Compound 6ab, (E)-3-(8-(tert-Butyl)-3,3-dimethyl-3,11-dihydropyrano[3,2-a]carbazol-5-yl)-N-(1-(2-fluorobenzyl)piperidin-4-yl)acrylamide] | 35.9 ± 5.13 | 36.16 ± 0.31 | 
4 | Cc1ccccc1CN1CCC(NC(=O)/C=C/c2cc3c([nH]c4ccc(C(C)(C)C)cc43)c3c2OC(C)(C)C=C3)CC1 [Compound 6ac, (E)-3-(8-(tert-Butyl)-3,3-dimethyl-3,11-dihydropyrano[3,2-a]carbazol-5-yl)-N-(1-(2-methylbenzyl)piperidin-4-yl)acrylamide] | 34.3 ± 0.69 | 50.9 ± 2.76 | 
5 | CC1(C)C=Cc2c(c(/C=C/C(=O)NC3CCN(Cc4ccccc4Cl)CC3)cc3c2[nH]c2ccc(C(C)(C)C)cc23)O1 [Compound 6ad, (E)-3-(8-(tert-Butyl)-3,3-dimethyl-3,11-dihydropyrano[3,2-a]carbazol-5-yl)-N-(1-(2-chlorobenzyl)piperidin-4-yl)acrylamide] | 38.8 ± 2.48 | 42.5 ± 6.12 | 
6 | COc1ccc2[nH]c3c4c(c(/C=C/C(=O)NC5CCN(Cc6ccccc6)CC5)cc3c2c1)OC(C)(C)C=C4 [Compound 6ae, (E)-N-(1-Benzylpiperidin-4-yl)-3-(8-methoxy-3,3-dimethyl-3,11-dihydropyrano[3,2-a]carbazol-5-yl)acrylamide] | 69.1 ± 8.51 | 20.4 ± 7.35 | 
7 | COc1ccc2[nH]c3c4c(c(/C=C/C(=O)NC5CCN(Cc6ccccc6F)CC5)cc3c2c1)OC(C)(C)C=C4 [Compound 6af, (E)-N-(1-(2-Fluorobenzyl)piperidin-4-yl)-3-(8-methoxy-3,3-dimethyl-3,11-dihydropyrano[3,2-a]carbazol-5-yl)acrylamide] | 24.5 ± 1.94 | 34.2 ± 10.7 | 
8 | COc1ccc2[nH]c3c4c(c(/C=C/C(=O)NC5CCN(Cc6ccccc6C)CC5)cc3c2c1)OC(C)(C)C=C4 [Compound 6ag, (E)-3-(8-Methoxy-3,3-dimethyl-3,11-dihydropyrano[3,2-a]carbazol-5-yl)-N-(1-(2-methylbenzyl)piperidin-4-yl)acrylamide] | 26.4 ± 4.51 | 36.8 ± 1.25 | 
9 | COc1ccc2[nH]c3c4c(c(/C=C/C(=O)NC5CCN(Cc6ccccc6Cl)CC5)cc3c2c1)OC(C)(C)C=C4 [Compound 6ah, (E)-N-(1-(2-Chlorobenzyl)piperidin-4-yl)-3-(8-methoxy-3,3-dimethyl-3,11-dihydropyrano[3,2-a]carbazol-5-yl)acrylamide] | 18 ± 2.27 | 40 ± 1.4 | 
10 | CC1(C)C=Cc2c(c(/C=C/C(=O)NCC3CCN(Cc4ccccc4)CC3)cc3c2[nH]c2ccc(C(C)(C)C)cc23)O1 [Compound 6ba, (E)-N-((1-Benzylpiperidin-4-yl)methyl)-3-(8-(tert-butyl)-3,3-dimethyl-3,11-dihydropyrano[3,2-a]carbazol-5-yl)acrylamide] | 12.3 ± 0.66 |  | 4.62 ± 0.28
11 | Cc1ccccc1CN1CCC(CNC(=O)/C=C/c2cc3c([nH]c4ccc(C(C)(C)C)cc43)c3c2OC(C)(C)C=C3)CC1 [Compound 6bc, (E)-3-(8-(tert-Butyl)-3,3-dimethyl-3,11-dihydropyrano[3,2-a]carbazol-5-yl)-N-((1-(2-methylbenzyl)piperidin-4-yl)methyl)acrylamide] | 19 ± 0.94 |  | 4.26 ± 0.22
12 | COc1ccc2[nH]c3c4c(c(/C=C/C(=O)NCC5CCN(Cc6ccccc6)CC5)cc3c2c1)OC(C)(C)C=C4 [Compound 6bg, (E)-N-((1-Benzylpiperidin-4-yl)methyl)-3-(8-methoxy-3,3-dimethyl-3,11-dihydropyrano[3,2-a]carbazol-5-yl)acrylamide] | 74.9 ± 3.21 |  | 27.7 ± 5.15
13 | COc1ccc2[nH]c3c4c(c(/C=C/C(=O)NCC5CCN(Cc6ccccc6F)CC5)cc3c2c1)OC(C)(C)C=C4 [Compound 6bh, (E)-N-((1-(2-Fluorobenzyl)piperidin-4-yl)methyl)-3-(8-methoxy-3,3-dimethyl-3,11-dihydropyrano[3,2-a]carbazol-5-yl)acrylamide] | 31.5 ± 3.88 |  | 23.6 ± 8.31
14 | COc1ccc2[nH]c3c4c(c(/C=C/C(=O)NCC5CCN(Cc6ccccc6C)CC5)cc3c2c1)OC(C)(C)C=C4 [Compound 6bi, (E)-3-(8-Methoxy-3,3-dimethyl-3,11-dihydropyrano[3,2-a]carbazol-5-yl)-N-((1-(2-methylbenzyl)piperidin-4-yl)methyl)acrylamide] | 32.8 ± 0.5 |  | 58.4 ± 1.79
15 | COc1ccc2[nH]c3c4c(c(/C=C/C(=O)NCC5CCN(Cc6ccccc6Cl)CC5)cc3c2c1)OC(C)(C)C=C4 [Compound 6bj, (E)-N-((1-(2-Chlorobenzyl)piperidin-4-yl)methyl)-3-(8-methoxy-3,3-dimethyl-3,11-dihydropyrano[3,2-a]carbazol-5-yl)acrylamide] | 37.6 ± 0.56 |  | 91.1 ± 4.41
16 | CC1(C)C=Cc2c(c(/C=C/C(=O)NCCC3CCN(Cc4ccccc4)CC3)cc3c2[nH]c2ccc(C(C)(C)C)cc23)O1 [Compound 6ca, (E)-N-(2-(1-Benzylpiperidin-4-yl)ethyl)-3-(8-(tert-butyl)-3,3-dimethyl-3,11-dihydropyrano[3,2-a]carbazol-5-yl)acrylamide] | 23.4 ± 0.95 |  | 9 ± 0.86
17 | CC1(C)C=Cc2c(c(/C=C/C(=O)NCCC3CCN(Cc4ccccc4F)CC3)cc3c2[nH]c2ccc(C(C)(C)C)cc23)O1 [Compound 6cb, (E)-3-(8-(tert-Butyl)-3,3-dimethyl-3,11-dihydropyrano[3,2-a]carbazol-5-yl)-N-(2-(1-(2-fluorobenzyl)piperidin-4-yl)ethyl)acrylamide] | 19.1 ± 2.04 |  | 10.7 ± 0.2
18 | Cc1ccccc1CN1CCC(CCNC(=O)/C=C/c2cc3c([nH]c4ccc(C(C)(C)C)cc43)c3c2OC(C)(C)C=C3)CC1 [Compound 6cc, (E)-3-(8-(tert-Butyl)-3,3-dimethyl-3,11-dihydropyrano[3,2-a]carbazol-5-yl)-N-(2-(1-(2-methylbenzyl)piperidin-4-yl)ethyl)acrylamide] | 33.8 ± 0.51 |  | 14.3 ± 0.36
19 | CC1(C)C=Cc2c(c(/C=C/C(=O)NCCC3CCN(Cc4ccccc4Cl)CC3)cc3c2[nH]c2ccc(C(C)(C)C)cc23)O1 [Compound 6cd, (E)-3-(8-(tert-Butyl)-3,3-dimethyl-3,11-dihydropyrano[3,2-a]carbazol-5-yl)-N-(2-(1-(2-chlorobenzyl)piperidin-4-yl)ethyl)acrylamide] | 17.3 ± 4.82 |  | 17 ± 1.51
20 | COc1ccc2[nH]c3c4c(c(/C=C/C(=O)NCCC5CCN(Cc6ccccc6)CC5)cc3c2c1)OC(C)(C)C=C4 [Compound 6ce, (E)-N-(2-(1-Benzylpiperidin-4-yl)ethyl)-3-(8-methoxy-3,3-dimethyl-3,11-dihydropyrano[3,2-a]carbazol-5-yl)acrylamide] | 26.4 ± 1.4 |  | 41.7 ± 1.22
21 | COc1ccc2[nH]c3c4c(c(/C=C/C(=O)NCCC5CCN(Cc6ccccc6F)CC5)cc3c2c1)OC(C)(C)C=C4 [Compound 6cf, (E)-N-(2-(1-(2-Fluorobenzyl)piperidin-4-yl)ethyl)-3-(8-methoxy-3,3-dimethyl-3,11-dihydropyrano[3,2-a]carbazol-5-yl)acrylamide] | 18 ± 3.35 |  | 54.8 ± 7.96
22 | COc1ccc2[nH]c3c4c(c(/C=C/C(=O)NCCC5CCN(Cc6ccccc6C)CC5)cc3c2c1)OC(C)(C)C=C4 [Compound 6cg, (E)-3-(8-Methoxy-3,3-dimethyl-3,11-dihydropyrano[3,2-a]carbazol-5-yl)-N-(2-(1-(2-methylbenzyl)piperidin-4-yl)ethyl)acrylamide] | 26.7 ± 1.76 |  | 73 ± 1.93
23 | COc1ccc2[nH]c3c4c(c(/C=C/C(=O)NCCC5CCN(Cc6ccccc6Cl)CC5)cc3c2c1)OC(C)(C)C=C4 [Compound 6ch, (E)-N-(2-(1-(2-Chlorobenzyl)piperidin-4-yl)ethyl)-3-(8-methoxy-3,3-dimethyl-3,11-dihydropyrano[3,2-a]carbazol-5-yl)acrylamide] | 24.2 ± 4.78 |  | 24.6 ± 2.1
